Reference: patent US20190247302A1, “MATERIALS AND METHODS FOR TREATING OPHTHALMIC INFLAMMATION” (University of Miami, priority 2016, published 2019)
Entries after “also recorded” stand apart in the source; their conditions may differ. One block for each compound: values may come before it.

Legend:
LPS-induced keratitis = assay: LPS-induced keratitis, local BRDi administration; clinical haze score; assay type: in vivo
Text: FIG. 5 is a bar graph illustrating the effect of prior formulations on corneal clarity and corneal edema following LPS-induced keratitis. Y axis=clinical haze score; X axis=time after application of LPS+formulations (IBET151, topical (solid bar); IBET151, subconjunctival (hashed bar); solvent, subconjunctival (dotted bar)). […] FIG. 6 is a bar graph illustrating the effect of a formulation of the instant disclosure (administered via subconjunctival injection) on corneal clarity and corneal edema following LPS-induced keratitis. Y axis=clinical haze score; X axis=time after application of LPS+IBET151 formulation (solid bar); solvent alone (hashed bar); saline (dotted bar)). […] FIG. 7 is a bar graph illustrating the effect of a formulation of the instant disclosure (topical administration) on corneal clarity and corneal edema following LPS-induced keratitis. Y axis=clinical haze score; X axis=time after application of LPS+JQ1 formulation (topical, hashed bar); solvent alone (subconjunctival, dotted bar)). […] Next, to address whether local administration of bromodomain inhibitors could be used to regulate ocular inflammatory responses, an ophthalmic formulation BRDi compounds was developed. De novo development was required because the solution required to dissolve these non-polar compounds was not amenable to application to the ocular surface, as they require dilution in high concentrations of DMSO and Tween 80. […] The new formulation comprising bromodomain inhibitor IBET-151 was delivered locally in the eye by subconjunctival injection (20 μg/kg/body weight) just prior and during the induction of in vivo LPS-induced keratitis. […] To confirm that a second bromodomain inhibitor could successfully be used in the ocular compartment to reduce inflammation, JQ1 dissolved in the new ophthalmologic formulation was locally administered (1 μg/μl). The formulation was applied topically, i.e. on the corneal surface 1 drop/3× per day.

[1] = tested on: TNFα production in RAW cells; assay: TNFα protein in LPS-treated RAW cells, intracellular antibody staining and flow cytometry; assay type: cell-based; conditions: 1 μg/ml LPS, BRDi 67.5-500 nM
Method: Y axis=TNFα percentage of P1 gate; X axis=no LPS/no BRDi, 1 μg/ml LPS/no BRDi, BRDI 500 nM LPS, BRDI 250 nM LPS, BRDI 125 nM LPS, BRDI 67.5 Nm LPS. Triangles=JQ1; squares=IBET151; circles=EP313.
Studies then examined protein production and confirmed that TNFα was reduced by treating RAW cells in vitro with multiple bromodomain inhibitor compounds (FIG. 2).

[2] = Concentration of bromodomain inhibitor achievable in the new ophthalmic formulation; assay type: physicochemical; conditions: 0.5% DMSO, 0.5% Tween-80, 0.9% NaCl, 1.8% Captisol, versus previous formulations
Text: Next, to address whether local administration of bromodomain inhibitors could be used to regulate ocular inflammatory responses, an ophthalmic formulation BRDi compounds was developed. De novo development was required because the solution required to dissolve these non-polar compounds was not amenable to application to the ocular surface, as they require dilution in high concentrations of DMSO and Tween 80.
To address this issue, a new ophthalmic formulation was developed. The bromodomain inhibitors were successfully diluted at higher concentrations when formulated with DMSO, polysorbate (Tween-80), preservative free 0.9% NaCl, and captisol (Captisol®), which is a polyanionic beta-cyclodextrin derivative providing. […] Using this new formulation, the concentrations of both DMSO and Tween-80 were able to be reduced, from 5% to 0.5% of each (which is tolerable to the eye). The final solution containing the bromodomain inhibitors was 0.5% DMSO, 0.5% Tween-80 and 1.8% Captisol.

[3] = tested on: conjunctival epithelial cells (HCEC); assay: Cytokine mRNA in LPS-exposed human conjunctival epithelial cells (HCEC); assay type: cell-based; conditions: 3 hours LPS, 500 nM
Method: (§1) FIGS. 8A-8C are a bar graph illustrating the effect of BRDi on a human ocular surface primary parenchymal cell line. FIG. 8A illustrates cytokine/GAPDH mRNA levels (ratio to no treatment) (Y-axis) of IL-8, IL-1β, IL-6, TNFα, and CCL2 in HCEC administered no treatment (solid bars), three hours after exposure to LPS (gray bar), and three hours after exposure to LPS and JQ1 (500 nM, hashed bar). FIG. 8B illustrates cytokine/GAPDH mRNA levels (ratio to no treatment) (Y-axis) of IL-8, IL-1β, and IL-6 in keratocytes administered no treatment (solid bars), four hours after exposure to LPS (gray bar), four hours after exposure to LPS and JQ1 (500 nM, hashed bar), and four hours after exposure to LPS and EP313 (500 nM, checked bar). FIG. 8C illustrates cytokine/GAPDH mRNA levels (ratio to no treatment) (Y-axis) of CCL2 in keratocytes administered no treatment (solid bars), four hours after exposure to LPS (gray bar), four hours after exposure to LPS and JQ1 (500 nM, hashed bar), and four hours after exposure to LPS and EP313 (500 nM, checked bar).
The ability of BRDi compounds to regulate production of dry eye-associated cytokines and chemokines produced by human ocular parenchymal cell populations also was examined. In vitro cells from the cornea and conjunctiva compartments of donated human eyes (Florida Lions Bank) were expanded. Primary cell lines were developed comprising either corneal keratocytes or conjunctival epithelial cells (HCEC) (FIG. 8A-8C). Following 3 hr. exposure to LPS, HCEC produced significant levels of IL-8, […], TNFα, CCL2, and detectable levels of IL-6 RNA (FIG. 8A). […] Corneal keratocyte cultures were also examined for RNA production and were also regulated by BRDi compounds JQ1 and EP313 (FIGS. 8B and 8C). […] These observations extend the potential of BRDi to inhibit ocular inflammation. Additionally, differences may exist between the families of BRDi compounds such that particular BRDi may be more useful under a specific set of disease conditions.

corneal keratocytes = assay: Cytokine mRNA in LPS-exposed human corneal keratocytes; assay type: cell-based; conditions: 4 hours LPS, 500 nM
Method: as §1
The ability of BRDi compounds to regulate production of dry eye-associated cytokines and chemokines produced by human ocular parenchymal cell populations also was examined. In vitro cells from the cornea and conjunctiva compartments of donated human eyes (Florida Lions Bank) were expanded. […]

concentration of bromodomain inhibitor that can be formulated [2]: significantly higher concentrations
SMILES: COc1cc2c(cc1-c1c(C)noc1C)ncc1[nH]c(=O)n([C@H](C)c3ccccn3)c12 [IBET151]
clinical haze score (corneal clarity and corneal edema) (LPS-induced keratitis; new formulation RLVP.001, subconjunctival injection, 20 μg/kg/body weight): prevents corneal opacification
clinical haze score (corneal clarity and corneal edema) (LPS-induced keratitis; new formulation RLVP.001, subconjunctival injection, 20 μg/kg/body weight, listed as IBET-151): ameliorates the development of corneal inflammation
TNFα protein (TNFα percentage of P1 gate) [1]: TNFα protein inhibition

SMILES: Cc1sc2c(c1C)C(c1ccc(Cl)cc1)=N[C@@H](CC(=O)OC(C)(C)C)c1nnc(C)n1-2 [JQ1]
CCL2 RNA level [3]: marked decreases
IL-1β RNA level [3]: marginally reduced
IL-6 RNA level [3]: marked decreases
IL-8 RNA level [3]: marked decreases
TNFα RNA level [3]: marked decreases
cytokine RNA production (corneal keratocytes): regulated
clinical haze score (corneal clarity and corneal edema) (LPS-induced keratitis; new formulation RLVP.001, topical, 1 μg/μl, 1 drop/3× per day): prevents corneal opacification; also recorded: successfully ameliorated the inflammatory response in the cornea
TNFα protein (TNFα percentage of P1 gate) [1]: TNFα protein inhibition
concentration of bromodomain inhibitor that can be formulated [2]: significantly higher concentrations
